According to patent US20230339981A1, “KRAS G12D MODULATING COMPOUNDS” (priority 2022, published 2023):
pEC50, pIC50: −log10 of the molar value.

Legend:
[1] = target: GDP-loaded KRAS G12D (Homo sapiens (Human), UniProt P01116, G12D); experiment: KRAS G12D (GDP) biochemical assay (TR-FRET probe displacement); type: binding; conditions: 2 hours
Method in brief: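 TR-FRET probe displacement: 1:3 DMSO serial dilutions pre-incubated 30 min with GDP-bound KRAS G12D, followed by Eu-streptavidin/probe for 2 h at room temperature (Hepes pH 7.4, NaCl, MgCl2, Tween-20 buffer). IC50 defined as concentration halving TR-FRET ratio, from sigmoidal dose-response fit.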

[2] = test system: GP2D (KRAS G12D) cells; experiment: 2D cell viability assay (CellTiter-Glo); type: cell-based; conditions: GP2d, 96 h, 4 days
Method in brief: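 Viability was read by CellTiter-Glo after 4 days at 37 °C of 2D culture of KRAS G12D GP2D cells (1000/well, RPMI, 10% FBS) on pre-spotted threefold compound dilutions. EC50 was fitted with a sigmoidal dose-response model as the point of half-maximal luminescence loss.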

[3] = test system: AsPC-1 (KRAS G12D) cells; experiment: 3D cell viability assay (spheroids, CellTiter-Glo 3D); type: cell-based; conditions: Homo sapiens, ASPC1, 96 h, AsPC-1 cells, 3D spheroids, 4 days
Protocol: Example C. 3D Cell Viability Assay
Compounds were tested in a 384-well format for their ability to inhibit the viability of AsPC-1 (KRAS G12D) cells in 3D assays. On day 0, 1000 cells/well (80 μL volume per well) in DMEM with 10% FBS, and Penicillin-Streptomycin-Glutamine were plated in 384-well Ultra-Low Attachment Spheroid Microplates (Corning, Catalog #3830) on the BioTEK EL406 liquid dispenser with a 5 μL dispensing cassette (BioTek 7170011). The plates were incubated at 37° C., 5% CO2 for 3 days to allow spheroid formation. On day 3, compounds were serially diluted (1:3) in DMSO. The Biomek FX was used to add 400 nL of test molecule per well. The plates were incubated at 37° C., 5% CO2 for 4 days before addition of CellTiter-Glo 3D (Promega, Catalog #9683) reagent and measurement of luminescence signal. EC50 values were defined as the compound concentration that causes a 50% decrease in luminescence signal and were calculated using a sigmoidal dose-response model to generate curve fits.

Sequence of GDP-loaded KRAS G12D (P01116-2 other isoform, or with tags, fused parts or gaps G12D): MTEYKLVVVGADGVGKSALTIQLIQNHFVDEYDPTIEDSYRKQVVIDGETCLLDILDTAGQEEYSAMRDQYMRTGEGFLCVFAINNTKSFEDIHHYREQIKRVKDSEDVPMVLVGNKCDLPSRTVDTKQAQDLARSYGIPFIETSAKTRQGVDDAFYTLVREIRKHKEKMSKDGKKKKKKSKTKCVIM

Compound | pIC50 [1] | pEC50 [2] | pEC50 [3]
C#Cc1c(F)ccc2cc(O)cc(-c3nc4c5c(nc(OCC6(CN7CCCOCC7)CC6)nc5c3F)N3C[C@H]5CC[C@H](N5)[C@H]3CO4)c12 [Example 35, 4-((5aS,6S,9R)-12-((1-((1,4-oxazepan-4-yl)methyl)cyclopropyl)methoxy)-1-fluoro-5a,6,7,8,9,10-hexahydro-5H-4-oxa-3,10a,11,13,14-pentaaza-6,9-methanonaphtho[1,8-ab]heptalen-2-yl)-5-ethynyl-6-fluoronaphthalen-2-ol] | 9.52 | 8.22 | 7.77
C#Cc1c(F)ccc2cc(O)cc(-c3nc4c5c(nc(OC[C@@]67CCCN6[C@H](COC(=O)N6CCCCCC6)CC7)nc5c3F)N3C[C@H]5CC[C@H](N5)[C@H]3CO4)c12 [Example 38, ((3S,7aS)-7a-((((5aS,6S,9R)-2-(8-ethynyl-7-fluoro-3-hydroxynaphthalen-1-yl)-1-fluoro-5a,6,7,8,9,10-hexahydro-5H-4-oxa-3,10a,11,13,14-pentaaza-6,9-methanonaphtho[1,8-ab]heptalen-12-yl)oxy)methyl)hexahydro-1H-pyrrolizin-3-yl)methyl azepane-1-carboxylate] | 9.52 | 7.55 | 7.33
C#Cc1c(F)ccc2cc(O)cc(-c3nc4c5c(nc(OC[C@@]67CCCN6[C@H](COC(=O)N(C)C)CC7)nc5c3F)N3C[C@H]5CC[C@H](N5)[C@H]3CO4)c12 [Example 39, ((3S,7aS)-7a-((((5aS,6S,9R)-2-(8-ethynyl-7-fluoro-3-hydroxynaphthalen-1-yl)-1-fluoro-5a,6,7,8,9,10-hexahydro-5H-4-oxa-3,10a,11,13,14-pentaaza-6,9-methanonaphtho[1,8-ab]heptalen-12-yl)oxy)methyl)hexahydro-1H-pyrrolizin-3-yl)methyl dimethylcarbamate] | 9.40 | 7.32 | 7.02
Oc1cc(-c2nc3c4c(nc(OC[C@@]56CCCN5C[C@H](F)C6)nc4c2F)N2C[C@H]4CC[C@H](N4)[C@H]2CC3)c2c(F)c(Cl)ccc2c1 [Example 40, 6-chloro-5-fluoro-4-((5aR,6S,9R)-1-fluoro-12-(((2R,7aS)-2-fluorotetrahydro-1H-pyrrolizin-7a(5H)-yl)methoxy)-4,5,5a,6,7,8,9,10-octahydro-3,10a,11,13,14-pentaaza-6,9-methanonaphtho[1,8-ab]heptalen-2-yl)naphthalen-2-ol] | 8.70 | 7.72 | 7.13
Oc1cc(-c2nc3c4c(nc(OC[C@@]56CCCN5C[C@H](F)C6)nc4c2F)N2C[C@H]4CC[C@H](N4)[C@H]2CC3)c2c(OC(F)(F)F)c(F)ccc2c1 [Example 41, 6-fluoro-4-((5aR,6S,9R)-1-fluoro-12-(((2R,7aS)-2-fluorotetrahydro-1H-pyrrolizin-7a(5H)-yl)methoxy)-4,5,5a,6,7,8,9,10-octahydro-3,10a,11,13,14-pentaaza-6,9-methanonaphtho[1,8-ab]heptalen-2-yl)-5-(trifluoromethoxy)naphthalen-2-ol] | 9.22 | 8.52 | 8.10
Oc1cc(-c2nc3c4c(nc(OC[C@@]56CCCN5C[C@H](F)C6)nc4c2F)N2C[C@H]4CC[C@H](N4)[C@H]2CO3)c2c(OC3CC3)c(F)ccc2c1 [Example 42, 5-cyclopropoxy-6-fluoro-4-((5aS,6S,9R)-1-fluoro-12-(((2R,7aS)-2-fluorotetrahydro-1H-pyrrolizin-7a(5H)-yl)methoxy)-5a,6,7,8,9,10-hexahydro-5H-4-oxa-3,10a,11,13,14-pentaaza-6,9-methanonaphtho[1,8-ab]heptalen-2-yl)naphthalen-2-ol] | 8.70 | 7.55 | 7.02
C#Cc1c(F)ccc2cc(O)cc(-c3nc4c5c(nc(OC[C@@]67CCCN6[C@H](Cn6ccnn6)CC7)nc5c3F)N3C[C@H]5CC[C@H](N5)[C@H]3CO4)c12 [Example 49, 4-((5aS,6S,9R)-12-(((3S,7aS)-3-((1H-1,2,3-triazol-1-yl)methyl)tetrahydro-1H-pyrrolizin-7a(5H)-yl)methoxy)-1-fluoro-5a,6,7,8,9,10-hexahydro-5H-4-oxa-3,10a,11,13,14-pentaaza-6,9-methanonaphtho[1,8-ab]heptalen-2-yl)-5-ethynyl-6-fluoronaphthalen-2-ol] | 9.70 | 7.43 | 6.85
C#Cc1c(F)ccc2cc(O)cc(-c3cc4c5c(nc(OC[C@@]67CCCN6C[C@H](F)C7)nc5c3F)N3C[C@H]5CC[C@H](N5)[C@H]3CC4)c12 [Example 52, 5-ethynyl-6-fluoro-4-((1S,4R,14aR)-10-fluoro-8-(((2R,7aS)-2-fluorotetrahydro-1H-pyrrolizin-7a(5H)-yl)methoxy)-1,2,3,4,5,13,14,14a-octahydro-1,4-epiminoazepino[1′,2′:1,7]azepino[2,3,4-de]quinazolin-11-yl)naphthalen-2-ol] | 10.00 | 9.00 | 8.15
C#Cc1c(F)ccc2cc(O)cc(-c3nc4c5c(nc(OC[C@@]67CCCN6C[C@H](F)C7)nc5c3F)N3C[C@H]5CC[C@H](N5)[C@H]3CCC4)c12 [Example 75, 5-ethynyl-6-fluoro-4-((6aR,7S,10R)-1-fluoro-13-(((2R,7aS)-2-fluorotetrahydro-1H-pyrrolizin-7a(5H)-yl)methoxy)-5,6,6a,7,8,9,10,11-octahydro-4H-3,11a,12,14,15-pentaaza-7,10-methanocyclohepta[4,5]cycloocta[1,2,3-de]naphthalen-2-yl)naphthalen-2-ol] | 10.22 | 9.77 | 9.30
C#Cc1c(F)ccc2cccc(-c3nc4c5c(nc(OC[C@@]67CCCN6C[C@H](F)C7)nc5c3F)N3C[C@H]5CC[C@H](N5)[C@H]3CCC4)c12 [Example 76, (6aR,7S,10R)-2-(8-ethynyl-7-fluoronaphthalen-1-yl)-1-fluoro-13-(((2R,7aS)-2-fluorotetrahydro-1H-pyrrolizin-7a(5H)-yl)methoxy)-5,6,6a,7,8,9,10,11-octahydro-4H-3,11a,12,14,15-pentaaza-7,10-methanocyclohepta[4,5]cycloocta[1,2,3-de]naphthalene] | 10.00 | 8.40 | 7.57
C#Cc1c(F)ccc2cc(O)cc(-c3nc4c5c(nc(OCC6(CN7CCC[Si](C)(C)CC7)CC6)nc5c3F)N3C[C@H]5CC[C@H](N5)[C@H]3CC4)c12 [Example 78, 4-((5aR,6S,9R)-12-((1-((4,4-dimethyl-1,4-azasilepan-1-yl)methyl)cyclopropyl)methoxy)-1-fluoro-4,5,5a,6,7,8,9,10-octahydro-3,10a,11,13,14-pentaaza-6,9-methanonaphtho[1,8-ab]heptalen-2-yl)-5-ethynyl-6-fluoronaphthalen-2-ol] | 9.70 | 8.41 | 7.82
C[C@H]1C[C@@H]2[C@@H]3CC[C@H](CN2c2nc(OC[C@@]45CCCN4C[C@H](F)C5)nc4c(F)c(-c5cc(O)cc6ccc(F)c(F)c56)nc1c24)N3 [Example 81, 5,6-difluoro-4-((4S,5aR,6S,9R)-1-fluoro-12-(((2R,7aS)-2-fluorotetrahydro-1H-pyrrolizin-7a(5H)-yl)methoxy)-4-methyl-4,5,5a,6,7,8,9,10-octahydro-3,10a,11,13,14-pentaaza-6,9-methanonaphtho[1,8-ab]heptalen-2-yl)naphthalen-2-ol] | 9.70 | 8.55 | 7.74
C#Cc1c(F)ccc2cccc(-c3nc4c5c(nc(OC[C@@]67CCCN6C[C@H](F)C7)nc5c3F)N3C[C@H]5CC[C@H](N5)[C@@H]3[C@@H](C)[C@H]4C)c12 [Example 86, (4R,5S,5aS,6S,9R)-2-(8-ethynyl-7-fluoronaphthalen-1-yl)-1-fluoro-12-(((2R,7aS)-2-fluorotetrahydro-1H-pyrrolizin-7a(5H)-yl)methoxy)-4,5-dimethyl-4,5,5a,6,7,8,9,10-octahydro-3,10a,11,13,14-pentaaza-6,9-methanonaphtho[1,8-ab]heptalene] | 9.30 | 7.84 | 7.19
C#Cc1c(F)ccc2cc(O)cc(-c3nc4c5c(nc(OC[C@@]67CCCN6C[C@H](F)C7)nc5c3F)N3C[C@H]5CC[C@H](N5)[C@@H]3[C@@H](C)[C@H]4C)c12 [Example 87, 5-ethynyl-6-fluoro-4-((4R,5S,5aS,6S,9R)-1-fluoro-12-(((2R,7aS)-2-fluorotetrahydro-1H-pyrrolizin-7a(5H)-yl)methoxy)-4,5-dimethyl-4,5,5a,6,7,8,9,10-octahydro-3,10a,11,13,14-pentaaza-6,9-methanonaphtho[1,8-ab]heptalen-2-yl)naphthalen-2-ol] | 9.40 | 9.70 | 9.52
